Reference: patent US20130217085A1, “METHODS FOR IMPROVING FERMENTATION YIELD OF POLYUNSATURATED FATTY ACIDS” (NANJING UNIVERSITY OF TECHNOLOGY, priority 2010, published 2013)

Test system: Schizochytrium limacinum HX-308
Experiment: Shake-flask fermentation of Schizochytrium limacinum HX-308 with exogenous compatible solute added to the fermentation medium (fatty acid composition, DHA yield, biomass)
Type: cell-based
Conditions: for increase of DHA yield: versus no addition
Text: The detection method of the following Examples is the same as that in the application titled “Schizochytrium limacinum and method of production of DHA oil using the same” (Application No. 200910033869.5) The strain is Schizochytrium limacinum HX-308 with deposit number CCTCC No. M209059. Seed medium: D-glucose 40 g/L, yeast extract 2 g/L, sodium glutamate 10 g/L, MgCl2 3 g/L, CaCl2·2H2O 1 g/L, KH2PO4 4 g/L, KCl 2 g/L, NaCl 15 g/L, MgSO4·7H2O 5 g/L, FeCl3 0.1 g/L. (See “A Schizochytrium limacinum and method of production of DHA oil using the same” (Application No. 200910033869.5)). Fermentation medium: D-glucose 40 g/L, yeast extract 2 g/L, sodium glutamate 10 g/L, MgCl2 3 g/L, (NH4)2SO4 6 g/L, KH2PO4 4 g/L, KCl 2 g/L, NaCl 15 g/L, MgSO4·7H2O 5 g/L, FeCl3 0.1 g/L. (See “A Schizochytrium limacinum and method of production of DHA oil using the same” (Application No. 200910033869.5)). Cultural method: strain was inoculated into seed medium with inoculation amount of 5% (v/v), cultured in a 500 mL shake flask for 24 h to log phase under 170 r at 25° C., and inoculated into the fermentation medium with addition of a certain amount of glycine betaine (such as 10 mmol/L, 40 mmol/L, 70 mmol/L, 100 mmol/L) in inoculation amount of 9% (v/v) for culturing; fermentation ceased when glucose reached an amount of 0 g/L. The results are shown in Table 1. The strain is Schizochytrium limacinum HX-308 with deposit number CCTCC No. M209059. Seed medium: D-glucose 40 g/L, yeast extract 2 g/L, sodium glutamate 10 g/L, MgCl2 3 g/L, CaCl2·2H2O 1 g/L, KH2PO4 4 g/L, KCl 2 g/L, NaCl 15 g/L, MgSO4·7H2O 5 g/L, FeCl3 0.1 g/L. Fermentation medium: D-glucose 40 g/L, yeast extract 2 g/L, sodium glutamate 10 g/L, MgCl2 3 g/L, (NH4)2SO4 6 g/L, KH2PO4 4 g/L, KCl 2 g/L, NaCl 15 g/L, MgSO4·7H2O 5 g/L, FeCl3 0.1 g/L. Cultural method: the strain was inoculated into seed medium with inoculation amount of 5% (v/v), cultured in a 500 mL shake flask for 24 h to log phase under 170 r at 25° C., and inoculated into the fermentation medium with addition of a certain amount of trehalose (such as 10 mmol/L, 40 mmol/L, 80 mmol/L) in inoculation amount of 9% (v/v); fermentation ceased when glucose reached an amount of 0 g/L. The results are shown in Table 2.

[1] = exogenous glycine betaine 10 mM
[2] = exogenous glycine betaine 40 mM
[3] = exogenous glycine betaine 70 mM
[4] = exogenous glycine betaine 100 mM
[5] = exogenous glycine betaine 200 mM

Structure (SMILES): C[N+](C)(C)CC(=O)[O-] [glycine betaine]
- mass percentage of squalene (after treatment with exogenous glycine betaine, concentration not given, increased from 0.8%): 1.7%
- DHA yield (after treatment with exogenous glycine betaine, concentration not given, increased from 3.9 g/L): 5.0 g/L
- Total fatty acid yield (after treatment with exogenous glycine betaine, concentration not given, increased from 8.8 g/L): 10 g/L
- mass percentage of DPA in total fatty acids (after treatment with exogenous glycine betaine, concentration not given, increased from 11.9%): 16.2%
- mass percentage of DHA in total fatty acids (after treatment with exogenous glycine betaine, concentration not given, increased from 44.1%): 49.8%
- ratio of DHA in the total biomass (after treatment with exogenous glycine betaine, concentration not given, increased from 57): 72 mg/g
- mass percentage of saturated fatty acid C14: 0 in total fatty acid (after treatment with exogenous glycine betaine, concentration not given, reduced from 10.0%): 5.1%
- mass percentage of saturated fatty acid C16: 0 in total fatty acid (after treatment with exogenous glycine betaine, concentration not given, reduced from 24.4%): 20%
- increase of DHA yield (after treatment with exogenous glycine betaine): 28%
- ARA (% total fatty acids) [1]: 0.5 % total fatty acids
- Biomass [1]: 69 g/L
- C14:0 (% total fatty acids) [1]: 7.1 % total fatty acids
- C16:0 (% total fatty acids) [1]: 21.5 % total fatty acids
- DHA (% total fatty acids) [1]: 47.8 % total fatty acids
- DHA (mg/g biomass) [1]: 60.5 mg/g biomass
- DHA yield [1]: 4.2 g/L
- DPA (% total fatty acids) [1]: 14.5 % total fatty acids
- EPA (% total fatty acids) [1]: 1.2 % total fatty acids
- Others (% total fatty acids) [1]: 6.2 % total fatty acids
- Squalene (% total fatty acids) [1]: 1.2 % total fatty acids
- Total fatty acid yield [1]: 8.8 g/L
- ARA (% total fatty acids) [2]: 0.6 % total fatty acids
- Biomass [2]: 69 g/L
- C14:0 (% total fatty acids) [2]: 5.1 % total fatty acids
- C16:0 (% total fatty acids) [2]: 19.9 % total fatty acids
- DHA (% total fatty acids) [2]: 49.8 % total fatty acids
- DHA (mg/g biomass) [2]: 72.2 mg/g biomass
- DHA yield [2]: 5 g/L
- DPA (% total fatty acids) [2]: 16.2 % total fatty acids
- EPA (% total fatty acids) [2]: 1.6 % total fatty acids
- Others (% total fatty acids) [2]: 5.1 % total fatty acids
- Squalene (% total fatty acids) [2]: 1.7 % total fatty acids
- Total fatty acid yield [2]: 10 g/L
- ARA (% total fatty acids) [3]: 0.8 % total fatty acids
- Biomass [3]: 70 g/L
- C14:0 (% total fatty acids) [3]: 5.1 % total fatty acids
- C16:0 (% total fatty acids) [3]: 19.5 % total fatty acids
- DHA (% total fatty acids) [3]: 49.0 % total fatty acids
- DHA (mg/g biomass) [3]: 67.1 mg/g biomass
- DHA yield [3]: 4.7 g/L
- DPA (% total fatty acids) [3]: 16.0 % total fatty acids
- EPA (% total fatty acids) [3]: 2.0 % total fatty acids
- Others (% total fatty acids) [3]: 5.6 % total fatty acids
- Squalene (% total fatty acids) [3]: 2.0 % total fatty acids
- Total fatty acid yield [3]: 9.6 g/L
- ARA (% total fatty acids) [4]: 0.9 % total fatty acids
- Biomass [4]: 70 g/L
- C14:0 (% total fatty acids) [4]: 5.2 % total fatty acids
- C16:0 (% total fatty acids) [4]: 19.0 % total fatty acids
- DHA (% total fatty acids) [4]: 48.1 % total fatty acids
- DHA (mg/g biomass) [4]: 61.14 mg/g biomass
- DHA yield [4]: 4.3 g/L
- DPA (% total fatty acids) [4]: 15.8 % total fatty acids
- EPA (% total fatty acids) [4]: 2.6 % total fatty acids
- Others (% total fatty acids) [4]: 6.1 % total fatty acids
- Squalene (% total fatty acids) [4]: 2.3 % total fatty acids
- Total fatty acid yield [4]: 8.9 g/L
- Biomass [5]: 85 g/L
- C14:0 (% total fatty acids) [5]: 2.3 % total fatty acids
- C16:0 (% total fatty acids) [5]: 10.9 % total fatty acids
- DHA (% total fatty acids) [5]: 34.9 % total fatty acids
- DHA (mg/g biomass) [5]: 27 mg/g biomass
- DHA yield [5]: 2.3 g/L
- DPA (% total fatty acids) [5]: 10.5 % total fatty acids
- EPA (% total fatty acids) [5]: 8.6 % total fatty acids
- Others (% total fatty acids) [5]: 30.9 % total fatty acids
- Squalene (% total fatty acids) [5]: 1.9 % total fatty acids
- Total fatty acid yield [5]: 6.6 g/L

Structure (SMILES): OC[C@H]1O[C@H](O[C@H]2O[C@H](CO)[C@@H](O)[C@H](O)[C@H]2O)[C@H](O)[C@@H](O)[C@@H]1O [trehalose]
- increase of DHA yield (appropriate amount of trehalose): 92%
- DHA yield (appropriate amount of trehalose, increased from 3.9 g/L): 7.5 g/L
- yield of total fatty acids (appropriate amount of trehalose, increased from 8.8 g/L): 16.7 g/L
- ratio of DHA in total biomass (appropriate amount of trehalose, increased from 57): 99 mg/g
- Biomass (appropriate amount of trehalose, increased from 60 g/L): 76 g/L
- ARA (% total fatty acids) (exogenous trehalose 10 mM): 0.6 % total fatty acids
- Biomass (exogenous trehalose 10 mM): 70 g/L
- C14:0 (% total fatty acids) (exogenous trehalose 10 mM): 9.5 % total fatty acids
- C16:0 (% total fatty acids) (exogenous trehalose 10 mM): 22.3 % total fatty acids
- DHA (% total fatty acids) (exogenous trehalose 10 mM): 44.8 % total fatty acids
- DHA (mg/g biomass) (exogenous trehalose 10 mM): 57.1 mg/g biomass
- DHA yield (exogenous trehalose 10 mM): 4 g/L
- DPA (% total fatty acids) (exogenous trehalose 10 mM): 12.3 % total fatty acids
- EPA (% total fatty acids) (exogenous trehalose 10 mM): 1.6 % total fatty acids
- Others (% total fatty acids) (exogenous trehalose 10 mM): 8.1 % total fatty acids
- Squalene (% total fatty acids) (exogenous trehalose 10 mM): 0.8 % total fatty acids
- Total fatty acid yield (exogenous trehalose 10 mM): 8.9 g/L
- ARA (% total fatty acids) (exogenous trehalose 40 mM): 1.9 % total fatty acids
- Biomass (exogenous trehalose 40 mM): 74 g/L
- C14:0 (% total fatty acids) (exogenous trehalose 40 mM): 9.6 % total fatty acids
- C16:0 (% total fatty acids) (exogenous trehalose 40 mM): 21.3 % total fatty acids
- DHA (% total fatty acids) (exogenous trehalose 40 mM): 47.4 % total fatty acids
- DHA (mg/g biomass) (exogenous trehalose 40 mM): 56.6 mg/g biomass
- DHA yield (exogenous trehalose 40 mM): 4.2 g/L
- DPA (% total fatty acids) (exogenous trehalose 40 mM): 12.6 % total fatty acids
- EPA (% total fatty acids) (exogenous trehalose 40 mM): 1.8 % total fatty acids
- Others (% total fatty acids) (exogenous trehalose 40 mM): 4.5 % total fatty acids
- Squalene (% total fatty acids) (exogenous trehalose 40 mM): 0.9 % total fatty acids
- Total fatty acid yield (exogenous trehalose 40 mM): 8.9 g/L
- ARA (% total fatty acids) (exogenous trehalose 80 mM): 1.2 % total fatty acids
- Biomass (exogenous trehalose 80 mM): 76 g/L
- C14:0 (% total fatty acids) (exogenous trehalose 80 mM): 10.7 % total fatty acids
- C16:0 (% total fatty acids) (exogenous trehalose 80 mM): 23.2 % total fatty acids
- DHA (% total fatty acids) (exogenous trehalose 80 mM): 45 % total fatty acids
- DHA (mg/g biomass) (exogenous trehalose 80 mM): 99.3 mg/g biomass
- DHA yield (exogenous trehalose 80 mM): 7.5 g/L
- DPA (% total fatty acids) (exogenous trehalose 80 mM): 12.2 % total fatty acids
- EPA (% total fatty acids) (exogenous trehalose 80 mM): 1.3 % total fatty acids
- Others (% total fatty acids) (exogenous trehalose 80 mM): 5.5 % total fatty acids
- Squalene (% total fatty acids) (exogenous trehalose 80 mM): 0.9 % total fatty acids
- Total fatty acid yield (exogenous trehalose 80 mM): 16.7 g/L
- ARA (% total fatty acids) (exogenous trehalose 160 mM): 1.0 % total fatty acids
- Biomass (exogenous trehalose 160 mM): 78 g/L
- C14:0 (% total fatty acids) (exogenous trehalose 160 mM): 11.0 % total fatty acids
- C16:0 (% total fatty acids) (exogenous trehalose 160 mM): 22.5 % total fatty acids
- DHA (% total fatty acids) (exogenous trehalose 160 mM): 43.2 % total fatty acids
- DHA (mg/g biomass) (exogenous trehalose 160 mM): 89.7 mg/g biomass
- DHA yield (exogenous trehalose 160 mM): 7 g/L
- DPA (% total fatty acids) (exogenous trehalose 160 mM): 12.1 % total fatty acids
- EPA (% total fatty acids) (exogenous trehalose 160 mM): 1.4 % total fatty acids
- Others (% total fatty acids) (exogenous trehalose 160 mM): 8.3 % total fatty acids
- Squalene (% total fatty acids) (exogenous trehalose 160 mM): 0.5 % total fatty acids
- Total fatty acid yield (exogenous trehalose 160 mM): 16.2 g/L
- Biomass (exogenous trehalose 200 mM): 81 g/L
- C14:0 (% total fatty acids) (exogenous trehalose 200 mM): 11.7 % total fatty acids
- C16:0 (% total fatty acids) (exogenous trehalose 200 mM): 21.5 % total fatty acids
- DHA (% total fatty acids) (exogenous trehalose 200 mM): 41.7 % total fatty acids
- DHA (mg/g biomass) (exogenous trehalose 200 mM): 78 mg/g biomass
- DHA yield (exogenous trehalose 200 mM): 6.3 g/L
- DPA (% total fatty acids) (exogenous trehalose 200 mM): 11.5 % total fatty acids
- EPA (% total fatty acids) (exogenous trehalose 200 mM): 1.4 % total fatty acids
- Others (% total fatty acids) (exogenous trehalose 200 mM): 12.2 % total fatty acids
- Total fatty acid yield (exogenous trehalose 200 mM): 15.1 g/L
- ARA (% total fatty acids) (exogenous trehalose 280 mM): 1.0 % total fatty acids
- Biomass (exogenous trehalose 280 mM): 76 g/L
- C14:0 (% total fatty acids) (exogenous trehalose 280 mM): 11.1 % total fatty acids
- C16:0 (% total fatty acids) (exogenous trehalose 280 mM): 22.7 % total fatty acids
- DHA (% total fatty acids) (exogenous trehalose 280 mM): 39.1 % total fatty acids
- DHA (mg/g biomass) (exogenous trehalose 280 mM): 29 mg/g biomass
- DHA yield (exogenous trehalose 280 mM): 2.2 g/L
- DPA (% total fatty acids) (exogenous trehalose 280 mM): 10.8 % total fatty acids
- EPA (% total fatty acids) (exogenous trehalose 280 mM): 7.7 % total fatty acids
- Others (% total fatty acids) (exogenous trehalose 280 mM): 7.6 % total fatty acids
- Total fatty acid yield (exogenous trehalose 280 mM): 5.6 g/L
